Test results reported in patent publication EP0326331B1, “Substituted quinolines and cinnolines” (Dow AgroSciences LLC, priority 1988, dated 1989).
Where two headings read alike, the source gives them in different places.

Experiments:
Type in all cases: in vivo
[1] = test system: Botrytis cinerea (gray mold); test: Test 1 greenhouse foliar spray screen, gray mold on grape berries; settings: disease control rating, spray on grape berries, 400 ppm (+++ at 100 ppm)
[2] = test system: Pseudoperonospora cubensis (downy mildew); test: Test 1 greenhouse foliar spray screen, downy mildew on squash; settings: for DOWN MDEW: disease control rating, foliar spray on squash, 400 ppm (+++ at 100 ppm)
[3] = test system: Cercospora beticola (leaf spot); test: Test 1 greenhouse foliar spray screen, leaf spot on sugar beet; settings: disease control rating, foliar spray on sugar beet, 400 ppm (+++ at 100 ppm)
[4] = test system: Pyricularia oryzae (rice blast); test: whole plant or invertebrate; settings: disease control rating, foliar spray on rice, 400 ppm (+++ at 100 ppm)
corn rootworm = test: Mite/insect screen, CRW; settings: percent mortality, read-out: CRW RESULTS %
Summary of the method: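 Stock in acetone:alcohol 1:1 + TOXIMUL R 23 g/L + TOXIMUL S 13 g/L; diluted with water to indicated concentrations; mortality (%) after standard exposure.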

[5] = test system: Erysiphe graminis tritici (powdery mildew); test: Test 1 greenhouse foliar spray screen, powdery mildew on wheat; settings: disease control rating, foliar spray on wheat, 400 ppm (+++ at 100 ppm)
[6] = test system: Septoria tritici (leaf blotch); test: Test 1 greenhouse foliar spray screen, leaf blotch on wheat; settings: disease control rating, foliar spray on wheat, 400 ppm (+++ at 100 ppm)
[7] = test system: Twospotted spider mites (Tetranychus urticae Koch); test: Mite/insect screen, SM; settings: Tetranychus urticae, percent mortality, read-out: SM RESULTS %
Summary of the method: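 Read-out: percent mortality after standard exposure periods. Test solutions were water dilutions of compound dissolved in acetone/alcohol (50:50) with emulsifier blends; leaves were sprayed to runoff on both surfaces and air-dried for one hour before exposure.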

[8] = test system: Puccinia recondita tritici (leaf rust); test: Test 1 greenhouse foliar spray screen, leaf rust on wheat; settings: disease control rating, foliar spray on wheat, 400 ppm (+++ at 100 ppm)
[9] = test system: melon aphids (Aphis gossypii Glover); test: Mite/insect screen, MA; settings: Aphis gossypii, percent mortality, read-out: MA RESULTS %
Summary of the method: (§1)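 First, each compound was dissolved in an emulsifier-containing acetone/alcohol mixture and diluted with water. Next, leaves were sprayed until runoff and left to dry for an hour. For southern armyworm, two excised uninfested leaves went into a Petri dish with larvae; percent mortality followed standard exposure periods.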

[10] = test system: southern armyworm (Spodopetra eridania Cramer); test: Mite/insect screen, SAW; settings: Spodoptera eridania, percent mortality, read-out: SAW RESULTS %
Summary of the method: as §1

[11] = test system: Venturia inaequalis (apple scab); test: Test 1 greenhouse foliar spray screen, apple scab on apple seedling; settings: disease control rating, foliar spray on apple seedling, 400 ppm (+++ at 100 ppm)
[12] = foliar, rate 200 ppm, foliar spray on squash
[13] = foliar, rate 400 ppm, foliar spray on squash

| SMILES | GRAY MOLD [1] | DOWN MDEW [2] | LEAF SPOT [3] | RICE BLAST [4] | POWD MDEW [5] | LEAF BLOT [6] | LEAF RUST [8] | APPL SCAB [11] | mortality at 12 ppm (corn rootworm; CRW rate 12.00 ppm) [%] | mortality at 200 ppm [7, 12] [%] | mortality at 200 ppm [9, 12] [%] | mortality at 200 ppm [10, 12] [%] | mortality at 24 ppm (corn rootworm; CRW rate 24.00 ppm) [%] | mortality at 400 ppm [7, 13] [%] | mortality at 400 ppm [9, 13] [%] | mortality at 400 ppm [10, 13] [%] | also measured |
| --- | --- | --- | --- | --- | --- | --- | --- | --- | --- | --- | --- | --- | --- | --- | --- | --- | --- |
| Fc1cccc2c(NCCc3c[nH]cn3)ccnc12 [Example 164, 8-fluoro-N-[2-(1H-imidazol-4-yl)ethyl]-4-quinolinamine] | + (20-89% control at 400 ppm) | ++ (90-100% control at 400 ppm) | + (20-89% control at 400 ppm) | + (20-89% control at 400 ppm) | - (0-19% control at 400 ppm) | - (0-19% control at 400 ppm) | + (20-89% control at 400 ppm) | - (0-19% control at 400 ppm) | – | – | – | – | – | – | – | – | mortality at 12 ppm (corn rootworm; CRW RATE 12.00 PPM): 0%; mortality at 200 ppm ([7]; SAW, SM & MA RATE 200 PPM): 0%; mortality at 200 ppm ([9]; SAW, SM & MA RATE 200 PPM): 0%; mortality at 200 ppm ([10]; SAW, SM & MA RATE 200 PPM): 0% |
| Clc1ccc2c(NCCC3=CCCCC3)ccnc2c1 [Example 165, 7-chloro-N-[2-(1-cyclohexenyl)ethyl]-4-quinolinamine] | - (0-19% control at 400 ppm) | +++ (90-100% control at 100 ppm) | +++ (90-100% control at 100 ppm) | ++ (90-100% control at 400 ppm) | + (20-89% control at 400 ppm) | - (0-19% control at 400 ppm) | ++ (90-100% control at 400 ppm) | + (20-89% control at 400 ppm) | 0 | 0 | 0 | 0 | – | – | – | – | activity against downy mildew ([2]; summary statement in the description): particularly excellent activity; mortality at 24 ppm (corn rootworm; CRW RATE 24.00 PPM): 0%; mortality at 400 ppm ([7]; SAW, SM & MA RATE 400 PPM): 0%; mortality at 400 ppm ([9]; SAW, SM & MA RATE 400 PPM): 0%; mortality at 400 ppm ([10]; SAW, SM & MA RATE 400 PPM): 0% |
| Clc1ccc2c(NCCc3ccc4ccccc4c3)ccnc2c1 [Example 166, 7-chloro-N-[2-(2-naphthyl)ethyl]-4-quinolinamine] | - (0-19% control at 400 ppm) | +++ (90-100% control at 100 ppm) | - (0-19% control at 400 ppm) | + (20-89% control at 400 ppm) | + (20-89% control at 400 ppm) | + (20-89% control at 400 ppm) | + (20-89% control at 400 ppm) | - (0-19% control at 400 ppm) | 0 | 0 | 0 | 0 | 0 | 0 | 0 | 0 | – |
| Fc1ccc2nccc(NCCC3=CCCCC3)c2c1 [Example 168, N-[2-(1-cyclohexenyl)ethyl]-6-fluoro-4-quinolinamine] | - (0-19% control at 400 ppm) | +++ (90-100% control at 100 ppm) | - (0-19% control at 400 ppm) | ++ (90-100% control at 400 ppm) | + (20-89% control at 400 ppm) | - (0-19% control at 400 ppm) | ++ (90-100% control at 400 ppm) | - (0-19% control at 400 ppm) | 0 | 0 | 0 | 0 | 0 | 0 | 0 | 0 | – |
| FC(F)(F)c1ccc2c(NCCc3ccc4ccccc4c3)ccnc2c1 [Example 169, N-[2-(2-naphthyl)ethyl]-7-(trifluoromethyl)-4-quinolinamine] | - (0-19% control at 400 ppm) | ++ (90-100% control at 400 ppm) | - (0-19% control at 400 ppm) | ++ (90-100% control at 400 ppm) | + (20-89% control at 400 ppm) | - (0-19% control at 400 ppm) | + (20-89% control at 400 ppm) | - (0-19% control at 400 ppm) | 0 | 0 | 0 | 0 | 0 | 0 | 0 | 0 | – |
| CC(Cc1cccs1)Nc1ccnc2c(F)cccc12 (centres unmarked) [Example 170, 8-fluoro-N-[1-methyl-2-(2-thienyl)ethyl]-4-quinolinamine] | - (0-19% control at 400 ppm) | + (20-89% control at 400 ppm) | - (0-19% control at 400 ppm) | + (20-89% control at 400 ppm) | + (20-89% control at 400 ppm) | - (0-19% control at 400 ppm) | ++ (90-100% control at 400 ppm) | - (0-19% control at 400 ppm) | 0 | 0 | 0 | 0 | – | – | – | – | – |
| CC(Cc1cccs1)Nc1ccnc2ccccc12 (centres unmarked) [Example 171, N-[1-methyl-2-(2-thienyl)ethyl]-4-quinolinamine] | - (0-19% control at 400 ppm) | + (20-89% control at 400 ppm) | + (20-89% control at 400 ppm) | + (20-89% control at 400 ppm) | - (0-19% control at 400 ppm) | + (20-89% control at 400 ppm) | + (20-89% control at 400 ppm) | - (0-19% control at 400 ppm) | 0 | 0 | 0 | 0 | – | – | – | – | – |
| Clc1cccc2c(NCCc3cccs3)ccnc12 [Example 172, 8-chloro-N-[2-(2-thienyl)ethyl]-4-quinolinamine] | - (0-19% control at 400 ppm) | + (20-89% control at 400 ppm) | - (0-19% control at 400 ppm) | + (20-89% control at 400 ppm) | + (20-89% control at 400 ppm) | - (0-19% control at 400 ppm) | + (20-89% control at 400 ppm) | - (0-19% control at 400 ppm) | 0 | 0 | 0 | 0 | – | – | – | – | – |
| Fc1cccc2c(NCCC3COc4ccccc4O3)ccnc12 (centres unmarked) [Example 174, N-[2-(2,3-dihydro-1,4-benzodioxin-2-yl)ethyl]-8-fluoro-4-quinolinamine] | - (0-19% control at 400 ppm) | +++ (90-100% control at 100 ppm) | - (0-19% control at 400 ppm) | + (20-89% control at 400 ppm) | + (20-89% control at 400 ppm) | + (20-89% control at 400 ppm) | ++ (90-100% control at 400 ppm) | - (0-19% control at 400 ppm) | 0 | 0 | 0 | 0 | – | – | – | – | – |
| Fc1cccc2c(NCCc3ccsc3)ccnc12 [Example 175, 8-fluoro-N-[2-(3-thienyl)ethyl]-4-quinolinamine] | - (0-19% control at 400 ppm) | +++ (90-100% control at 100 ppm) | - (0-19% control at 400 ppm) | + (20-89% control at 400 ppm) | + (20-89% control at 400 ppm) | + (20-89% control at 400 ppm) | +++ (90-100% control at 100 ppm) | - (0-19% control at 400 ppm) | 0 | 0 | 0 | 0 | – | – | – | – | – |
